These results are taken from patent US11084783B2, “O-alkyl-benzylideneguanidine derivatives and therapeutic use for the treatment of disorders associated with an accumulation of misfolded proteins” (INFLECTIS BIOSCIENCE, priority 2014, dated 2021).

Assay [1] has as its system neonatal rat cardiomyocytes. Nature of the assay: Hypoxia-induced apoptosis in cultured neonatal rat cardiomyocytes. As to conditions: hypoxia 0.3% O2 for 36 h, apoptotic cells by FACS. In kind it is cell-based. From the text:
Primary cultures of neonatal rat cardiomyocytes were obtained from the ventricles of 1-day-old Sprague Dawley rats (Janvier, France). The rats were euthanized and their hearts excised. Hearts cut into small pieces (1-2 mm^3) and enzymatically digested using the Neonatal Heart Dissociation Kit rat and the gentleMACS™ Dissociator (MiltenyiBiotec, Germany). After dissociation, the homogenates were filtered (70 μm) to obtain a single-cell suspension. Isolated cells were collected by centrifugation and resuspended in Dulbecco's Modified Eagle's Medium (DMEM) containing 10% horse serum (HS), 5% fetal bovine serum (FBS) and 1% penicillin/streptomycin. Cultures were enriched with myocytes by pre-plating for 90 min to deplete the population of non-myocytes. Non-attached cells were plated onto 6- or 96-well plates at an appropriate cell density. […]
After 24 hours, the cardiomyocytes were treated with different concentrations of test compound in culture medium with 0.1% DMSO. […] Thirty minutes after starting the treatments, the cells were incubated in the hypoxic culture chamber (N2/CO2, 95%/5%; final measured O2: 0.3%) for 36 hours. […]
At the end of the treatment period, flow cytometry were performed to measure the amount of apoptotic cells. […] The mixture was incubated for 15 min in the dark at room temperature, and cellular fluorescence was then measured by FACS scan flow cytometry.

For assay [2], the system named is amyloid-beta 1-42 injured primary cortical rat neurons. In words: In vitro Alzheimer disease model: amyloid-beta 1-42 injured primary cortical rat neurons. In kind it is cell-based. As to conditions: Amyloid-beta 1-42 20 μM, 24 hours; total number of neurons (MAP-2). How it is done: Rat cortical neurons were cultured as described by Singer et al., (1999 J. Neuroscience 19 pp2455-63) and Callizot et al., (2013 J.Neurosci. Res. 91 pp706-16). Pregnant females (Wistar; Janvier Labs) at 15 days of gestation were killed by cervical dislocation. Fetuses were collected and immediately placed in ice-cold L15 Leibovitz medium (Pan Biotech, Batch: 9310614) with a 2% penicillin (10,000 U/mI) and streptomycin (10 mg/ml) solution (PS; Pan Biotech, Batch: 1451013) and 1% bovine serum albumin (BSA; Pan Biotech, Batch: h140603). Cortex was treated for 20 min at 37° C. with a trypsin-EDTA (Pan Biotech, Batch: 5890314) solution at a final concentration of 0.05% trypsin and 0.02% EDTA. […] Viable cells were counted in a Neubauer cytometer, using the trypan blue exclusion test. […]
The Amyloid-beta1-42 preparation was done following the procedure described by Callizot et al., 2013. […] Amyloid-beta 1-42 preparation was added to a final concentration of 20 μM (including to ˜2 μM of toxic oligomers measured by WB) diluted in control medium in presence of drugs. […]
The immunolabeled cultures were automatically examined with ImageXpress (Molecular device USA) at ×20 magnification. For each condition, 30 automatically fields per well (representing ˜80% of the total surface of the well) from 3 wells were analyzed. […] All values were expressed as mean +/−SEM (s.e.mean) (n=3 wells per condition per culture).

For `CCO/N=C(\N)N/N=C/c1ccccc1Cl` [Compound 10, 2-(2-chlorobenzylidene)-N′-ethoxyhydrazinecarboximidamide], the “protection from hypoxia-induced apoptosis (FIG. 10)” value in assay [1] was “protects”.
For the molecule `CCCONC(=N)N/N=C/c1ccccc1Cl` [Compound 12, 2-(2-chlorobenzylidene)-N-propoxyhydrazinecarboximidamide], in assay [2], the “protection of amyloid-beta 1-42 injured primary cortical rat neurons (FIG. 4)” value is “dose dependent protection”.
